Results reported in paper PMC7584622, “Sensing of autoinducer-2 by functionally distinct receptors in prokaryotes” (Nature Communications, 2020).
Values joined by “and” are separate entries in the source; they are usually repeats but may differ in a detail not shown here. Identical values can stand only once.

Experiments:
PctA = target: T1, PctA (Pseudomonas aeruginosa, UniProt G3XD24); experiment: in vitro methylation of PctA by CheR1 (LC-MS/MS); assay type: biochemical, P. aeruginosa; conditions: for Methylation level (%) of PctA at E381: CheR1, 10 μM SAM, 1 h, 30 °C; for Methylation level (%) of PctA, Fig. S5a / Methylation level (%) of PctA, Fig. S5b: site not given (Supplementary Fig. 5: E395 and E614)
T1 construct: the membrane fractions containing full-length PctA, KinD or rpHK1S-Z16 were collected; made in house; host or cells: E. coli HCB721 (pHSe5), membrane fractions
Protocol: The reaction was initiated by adding 10 μM SAM and the reaction was allowed to proceed for another 1 h at 30 °C. […] A control experiment was performed with no addition of SAM to check the initial methylation state of PctA. The reaction was stopped by adding 2× SDS-PAGE loading buffer. The reaction products were resolved by SDS-PAGE and stained with Coomassie brilliant blue. The gel bands corresponding to PctA were excised and used for detection and quantification of methylation by nano-LC-MS/MS.
Gel slices excised from SDS-PAGE gels were destained with three washes in 100 μl of 100 mM ammonium bicarbonate in 50% acetonitrile at 37 °C for 15 min. Destained gel pieces were dried in a SpeedVac (Thermo Fisher Scientific) for 15 min. 10 mM DTT in 25 mM ammonium bicarbonate was added to cover the gel pieces and incubated at 56 °C for 1 h. After cooling to room temperature, the supernatant was replaced by 55 mM iodoacetamide in 25 mM ammonium bicarbonate followed by 1 h incubation at room temperature in darkness. Gel slices were washed with 100 μl of 25 mM ammonium bicarbonate for 10 min, and then shrunk in acetonitrile for 10 min. Acetonitrile was removed and the gel slices were dried in a SpeedVac. The dried gel slices were swollen with 20 μl of 12.5 ng µl^−1 Pierce^TM trypsin protease (MS-grade; Thermo Fisher Scientific) in 50 mM ammonium bicarbonate at 4 °C for 1 h. An additional 30 μl of 50 mM ammonium bicarbonate was supplemented, followed by overnight incubation at 37 °C. After digestion, supernatants were transferred to a new tube, and remaining peptides were extracted from the gel slices with 50 μl of 0.1% trifluoroacetic acid at 37 °C for 30 min. Combined extracts for each gel slice were dried in a SpeedVac. The dried peptide samples were resolubilized in 0.1% formic acid and analyzed in C18 reversed-phase column connected to an EASY-nLC 1000 interfaced via a Nanospray Flex ion source to an Orbitrap Fusion Tribrid mass spectrometer (Thermo Fisher Scientific). The LC mobile phase consisted of 0.1% formic acid (v/v) in water (A) and 0.1% formic acid in acetonitrile (B). […] A data-dependent Top 20 method was used with precursor MS1 scan (m/z 350–1550) acquired in the Orbitrap at a resolution of 120,000, followed by Orbitrap HCD-MS/MS and OTHCD-MS/MS of the 20 most abundant multiply charged precursors in the MS1 spectrum. MS2 spectra were acquired at a resolution of 30,000. Methylation on glutamic acid residues of PctA and phosphorylation on histidine residues of KinD were set as variable modifications. Protein identification and quantification were performed using Mascot Daemon version 2.5.1 (Matrix Science, Boston, USA) considering the specific modifications.

P. aeruginosa PAO1 = experiment: crystal violet quantification of biofilm formation; conditions: 100 nM DPD/AI-2, 37 °C, 48 h
Protocol: Biofilms were stained with crystal violet and quantified using optical density measurement after incubation at 37 °C for 48 h. Data are mean ± s.e.m. of five independent experiments. b Quantification of biofilm formation by P. aeruginosa strains from confocal imaging. […] Images were reconstructed using the Imaris 9.0 software package (Bitplane, AG) (Supplementary Fig. 6) and biofilm biovolumes were quantified using COMSTAT (www.comstat.dk). Biovolumes were calculated from three biological replicates and each biological replicate was derived from an average of five confocal images.
For crystal violet quantification of biofilm formation, overnight cultures of relevant strains of P. aeruginosa were diluted with TSB medium to an OD600 of 0.05, and 190 μl aliquots of the diluted cells were inoculated into each well of a 96-well microtiter plate (cat# 220400, Zhejiang Sorfa Life Science Research Co., Ltd., China). […] After incubation at 37 °C for 48 h without shaking, culture supernatant was removed and the wells were washed twice with phosphate-buffered saline (PBS). Cells adhering to the wells were stained with 0.1% (w/v) crystal violet for 15 min and then washed three times with PBS. The bacteria-bound dye was dissolved in 200 μl of 95% ethanol and the absorbance was determined at 590 nm.

PctC-LBD = PctC-LBD (Pseudomonas aeruginosa, UniProt Q9HW93); experiment: ITC binding to PctC-LBD; conditions: 700 μM DPD/AI-2 into 70 μM PctC-LBD, minor heats, not certain whether they reflect binding
Protocol: ITC experiments were performed at 20 °C using a Nano ITC Standard Volume isothermal calorimeter (TA Instruments, New Castle, DE). […] The stirring speed was 200 r.p.m. and 25 injections were used each experiment. Three independent experiments were performed for each sample. […] ITC data were analyzed and fit with a one-site independent binding model using the NanoAnalyze software version 3.4 provided by the manufacturer, with the heat of dilution subtracted from the experimental titrations before data analysis.

LsrB = conditions: established receptor LsrB; cited from earlier work
PctA-LBD D146A = target: T2, PctA-LBD D146A (Pseudomonas aeruginosa, UniProt G3XD24, D146A); experiment: biochemical; assay type: binding; conditions: PctA-LBD D146A 70 μM; DPD/AI-2 700 μM
T2 construct: Amino acids 30-278 and 36-360 of PctA and TlpQ, respectively; His6 (N, cleaved yes); made in house; host or cells: E. coli BL21(DE3) (pET-28a derivative)

rpHK1S-Z16-LBD = rpHK1S-Z16-LBD (Rhodopseudomonas palustris, UniProt Q6N3S7); experiment: ITC binding to rpHK1S-Z16-LBD; parameters: species or system R. palustris; conditions: 700 μM DPD/AI-2 into 70 μM rpHK1S-Z16-LBD
PctA-LBD Y121A = target: T3, PctA-LBD Y121A (Pseudomonas aeruginosa, UniProt G3XD24, Y121A); experiment: biochemical; assay type: binding; conditions: PctA-LBD Y121A 70 μM; DPD/AI-2 700 μM
T3 construct: Amino acids 30-278 and 36-360 of PctA and TlpQ, respectively; His6 (N, cleaved yes); made in house; host or cells: E. coli BL21(DE3) (pET-28a derivative)

rpHK1S-Z16 = experiment: in vitro DGC activity assay, c-di-GMP synthesis (HPLC); assay type: biochemical, R. palustris; conditions: 100 μM GTP, 30 °C
Protocol: The DGC activity of rpHK1S-Z16 was determined by measuring the synthesis of c-di-GMP using an HPLC-based method. […] The reaction was initiated by adding 100 μM GTP and the reaction was allowed to proceed for 0, 30 and 60 min at 30 °C. At indicated time points, 50 μl aliquots were removed and heated at 100 °C for 5 min. Denatured proteins were removed through centrifugation and the supernatants were filtered through a 0.22 μm membrane. Samples were injected into an HPLC (Agilent 1260 infinity II) system equipped with a C18 reversed-phase column and a UV detector. Components were eluted isocratically with 98% A (150 mM Na2HPO4, pH 5.2) and 2% B (acetonitrile) in 15 min at a flow rate of 1 ml min^−1. The detection wavelength was 252 nm. GTP (Sigma, Cat# G8877) and c-di-GMP (Sigma, Cat# SML1228) were run as standards. The levels of synthesized c-di-GMP in the supernatants were determined from the standard curve obtained using known concentrations of c-di-GMP.

T1 sequence (G3XD24 whole entry): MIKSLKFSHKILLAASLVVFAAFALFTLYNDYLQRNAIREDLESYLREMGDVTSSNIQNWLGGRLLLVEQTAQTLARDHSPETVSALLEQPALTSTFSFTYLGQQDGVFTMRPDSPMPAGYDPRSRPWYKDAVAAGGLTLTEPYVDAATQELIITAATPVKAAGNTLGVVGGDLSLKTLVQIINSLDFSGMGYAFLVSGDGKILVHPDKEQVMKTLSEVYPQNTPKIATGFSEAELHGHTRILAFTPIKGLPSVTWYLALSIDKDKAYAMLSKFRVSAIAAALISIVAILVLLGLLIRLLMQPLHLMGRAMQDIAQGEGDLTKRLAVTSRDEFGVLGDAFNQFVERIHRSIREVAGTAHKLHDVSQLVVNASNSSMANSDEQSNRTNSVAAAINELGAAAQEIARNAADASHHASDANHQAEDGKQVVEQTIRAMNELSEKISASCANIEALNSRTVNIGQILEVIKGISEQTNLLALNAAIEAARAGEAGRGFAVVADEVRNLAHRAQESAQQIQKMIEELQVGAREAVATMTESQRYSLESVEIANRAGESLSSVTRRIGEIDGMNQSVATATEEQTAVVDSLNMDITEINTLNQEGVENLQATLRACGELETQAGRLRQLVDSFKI
T2 sequence (G3XD24 30-278 D146A): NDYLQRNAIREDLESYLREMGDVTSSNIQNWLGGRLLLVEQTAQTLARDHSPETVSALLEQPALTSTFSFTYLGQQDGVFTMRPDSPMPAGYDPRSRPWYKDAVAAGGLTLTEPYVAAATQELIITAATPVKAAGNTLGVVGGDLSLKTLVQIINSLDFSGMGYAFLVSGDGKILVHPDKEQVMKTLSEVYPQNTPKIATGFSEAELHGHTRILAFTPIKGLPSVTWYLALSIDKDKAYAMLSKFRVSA
rpHK1S-Z16-LBD, sequence (Q6N3S7 entry or part of it): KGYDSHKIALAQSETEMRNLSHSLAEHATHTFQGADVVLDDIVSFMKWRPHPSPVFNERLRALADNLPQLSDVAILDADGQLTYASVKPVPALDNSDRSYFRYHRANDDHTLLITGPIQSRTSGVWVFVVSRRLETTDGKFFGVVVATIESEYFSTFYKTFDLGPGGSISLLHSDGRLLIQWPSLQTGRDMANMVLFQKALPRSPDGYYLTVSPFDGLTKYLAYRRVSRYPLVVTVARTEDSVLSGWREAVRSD
PctC-LBD, sequence (Q9HW93 32-279): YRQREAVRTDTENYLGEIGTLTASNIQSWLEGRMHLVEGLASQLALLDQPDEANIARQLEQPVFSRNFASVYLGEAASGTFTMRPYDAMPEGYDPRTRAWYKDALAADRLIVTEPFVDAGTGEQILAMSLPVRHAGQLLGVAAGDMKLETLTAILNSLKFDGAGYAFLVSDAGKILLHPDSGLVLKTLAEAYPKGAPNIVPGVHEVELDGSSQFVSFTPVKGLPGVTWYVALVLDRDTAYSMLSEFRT
T3 sequence (G3XD24 30-278 Y121A): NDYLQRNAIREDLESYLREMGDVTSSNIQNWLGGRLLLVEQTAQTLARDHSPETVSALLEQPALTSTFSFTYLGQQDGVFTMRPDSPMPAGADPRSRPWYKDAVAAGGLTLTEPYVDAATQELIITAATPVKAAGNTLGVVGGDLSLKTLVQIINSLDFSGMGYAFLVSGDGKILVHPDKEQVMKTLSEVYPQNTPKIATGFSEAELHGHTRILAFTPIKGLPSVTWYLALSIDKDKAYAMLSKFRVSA

With `CC(=O)C(=O)C(O)CO` (stereo not shown) [DPD/AI-2, 4,5-dihydroxy-2,3-pentanedione] the “Methylation level (%) of PctA at E381” value (PctA; 100 μM DPD/AI-2) was 47.62% and 40.00%, the “Methylation level (%) of PctA, Fig. S5a” value (PctA; 100 μM DPD/AI-2) was 41.67% and 36.36% and 40.00% and the “Methylation level (%) of PctA, Fig. S5b” value (PctA; 100 μM DPD/AI-2) was 2.78% and 2.86% and 2.41%. For the same molecule, the “Methylation level (%) of PctA at E381” value (PctA; 500 μM DPD/AI-2) was 66.67% and 55.56% and 63.16%, the “Methylation level (%) of PctA, Fig. S5a” value (PctA; 500 μM DPD/AI-2) was 39.22% and 37.21% and 34.21% and the “Methylation level (%) of PctA, Fig. S5b” value (PctA; 500 μM DPD/AI-2) was 2.27% and 2.63%. For the same molecule, the “OD590 (crystal violet biofilm)” value (P. aeruginosa PAO1; strain WT(Vector)) was 3.71 and 3.92 and 4.21 and 4.32 and 4.12, the “OD590 (crystal violet biofilm)” value (P. aeruginosa PAO1; strain ΔpctA(Vector)) was 2.92 and 3.14 and 3.21 and 2.99 and 3.31 and the “OD590 (crystal violet biofilm)” value (P. aeruginosa PAO1; strain ΔpctAΔtlpQ(Vector)) was 2.53 and 2.64 and 2.49 and 2.62 and 2.12. The “OD590 (crystal violet biofilm)” value (P. aeruginosa PAO1; strain ΔpctAΔtlpQ(pctA)) was 3.05 and 3.43 and 3.56 and 3.32 and 3.18, the “OD590 (crystal violet biofilm)” value (P. aeruginosa PAO1; strain ΔpctAΔtlpQ(pctB)) was 2.31 and 2.73 and 2.24 and 2.53 and 2.77 and the “OD590 (crystal violet biofilm)” value (P. aeruginosa PAO1; strain ΔpctAΔtlpQ(tlpQ)) was 3.41 and 3.66 and 3.44 and 3.21 and 3.40. The “OD590 (crystal violet biofilm)” value (P. aeruginosa PAO1; strain ΔtlpQ(Vector)) was 3.21 and 3.31 and 3.58 and 3.67 and 3.42, the Kd (PctC-LBD) was 94 µM and 118 µM and 86 µM and the Kd (LsrB) was 0.19 to 0.81 µM. The Kd (PctA-LBD D146A) was 39 µM and 30 µM and 31 µM, the Kd (rpHK1S-Z16-LBD) was 0.13 µM and 0.19 µM and 0.21 µM and the Kd (PctA-LBD Y121A) was 23 µM and 22 µM and 19 µM. The “Concentration of c-di-GMP” value (rpHK1S-Z16; 100 μM DPD/AI-2, 30 min) was 25.52 µM and 26.85 µM and 25.80 µM, the “Concentration of c-di-GMP” value (rpHK1S-Z16; 100 μM DPD/AI-2, 60 min) was 33.20 µM and 34.39 µM and 33.48 µM and the “Concentration of c-di-GMP” value (rpHK1S-Z16; 200 μM DPD/AI-2, 30 min) was 34.46 µM and 32.43 µM and 32.71 µM. The “Concentration of c-di-GMP” value (rpHK1S-Z16; 200 μM DPD/AI-2, 60 min) was 45.28 µM and 43.18 µM and 41.92 µM.
